One data set concerns E. faecalis. The data set can be described thus: MBC of chlorhexidine diacetate alone and at 80% of the ethanol MIC. The format is cell-based. The protocol:
(§1) Determinations of Minimum Inhibitory Concentration (MIC) and Minimum Bacteriocidal Concentration (MBC) were performed using standard microbiological techniques. Chlorhexidine diacetate was tested at the following μg/mL concentrations: 256, 128, 64, 32, 16, 8, 4, 2, 1, 0.5, 0.25, and 0.125. Ethanol was tested at the following percent (%) concentrations: 50, 40, 30, 25, 20, 15, 12, 10, 7, and 5. Dilutions were prepared in Cationic Adjusted Mueller Hinton Broth (CAMHB). All tests were performed in microtiter plates with a total test volume of 100 μL, including diluted antimicrobial agent and inoculum. Concentrations of antimicrobial agents were prepared at 2× concentration, and 50 μL was added to each well of a microtiter plate, to which 50 μL of inoculum of the test organism was added to give the target test concentration.
(§2) Inoculum was prepared by transfer of isolated colonies from agar plates to 10 mL of trypticase soy broth (TSB), and incubation at 37° C. for 4 hrs. Cells were subsequently centrifuged, and resuspended twice in phosphate buffered saline. The population of this bacterial suspension was determined by reading optical density at 670 nm. Final concentrations of inoculum were adjusted to a range of approximately 5×10^4 cfu/mL, using CAMHB as a diluent. Initial concentrations were verified using the Miles and Misra drop count method. […]

Another data set concerns E. coli. The data set is described as above. The format is cell-based. An excerpt:
(§3) The synergy of ethanol and chlorhexidine is illustrated in Table 2 by measurement of the minimum bacteriocidal concentration (MBC) of chlorhexidine at ethanol concentrations that are subinhibitory (80% of the ethanol minimum inhibitory concentration).

Another data set concerns S. aureus. The description is as above. It counts as cell-based.
Description: as §3

In data set [1] the test system is E. faecalis, S. aureus, E. coli. The data set can be described thus: Change of chlorhexidine MBC at subinhibitory ethanol (summary of Table 2). The conditions noted are these: ethanol at 80% of the ethanol MIC. The format is cell-based. The protocol: as §1, §2
A short description of data set [2]: Release kinetics of chlorhexidine from loaded catheter segments. It counts as physicochemical. The conditions noted are these: catheter segments 200 micrograms/cm. Here is the method: 5Fr Catheter segments were bulk impregnated with chlorhexidine base (CHX) by soaking in an ethyl acetate solution of CHX and then evaporating the solvent. The chlorhexidine mass per unit length was determined by dissolving the catheter […] extracting the chlorhexidine. The measure mass of chlorhexidine was approximately 200 micrograms per cm. 5Fr catheter segments were similarly impregnated with chlorhexidine diacetate to a level of 200 micrograms/cm by soaking in an ethyl acetate-methanol solution followed by evaporation. These segments were used in Zone of inhibition testing and release kinetics testing.
Release kinetics measurements were performed of chlorhexidine base (CHX) and chlorhexidine diacetate (CHA) loaded catheter segments (200 micrograms/cm) in water and in 25% ethanol lock. One cm long catheter segments were placed in 10 ml of 25% ethanol lock solution. At each sampling point the eluting solution was removed and replaced with fresh solution. The amount of chlorhexidine released was measured by UV absorbance readings at 263 nm on the eluting lock solution relative to a reference curve of chlorhexidine standards prepared to known concentrations in 25% ethanol lock. Cumulative % release was calculated from the measured amount released at each time point and the quantity of chlorhexidine loaded into the catheter segments.

The nature of data set [3]: Solubility of chlorhexidine salts in ethanol (100%) and water. The settings on record: for Ethanol Solubility: ethanol (100%). The format is physicochemical.
In another data set the test system is C. albicans ATCC 10231. The conditions noted are these: ethanol. Here is the method:
as §1
(§4) Inoculum was prepared by transfer of isolated colonies from agar plates to 10 mL of trypticase soy broth (TSB), and incubation at 37° C. for 4 hrs. Cells were subsequently centrifuged, and resuspended twice in phosphate buffered saline. The population of this bacterial suspension was determined by reading optical density at 670 nm. Final concentrations of inoculum were adjusted to a range of approximately 5×10^4 cfu/mL, using CAMHB as a diluent. Initial concentrations were verified using the Miles and Misra drop count method. To each test well of a microtiter plate, 50 μl of inoculum was added along with 50 μl of the 2× concentration of the antimicrobial agent being tested. Incubation was at 37° C. for 16 to 20 hours.
(§5) To determine MBC values, 50 μl was removed from each well showing inhibition of growth (MIC and greater). Solutions from these inhibitory concentrations of antimicrobial agent were diluted in CAMHB to concentrations where they would no longer inhibit the growth of the test organism. Recovery counts were obtained by plating aliquots of the diluted material onto TSA plate containing 5% sheep's blood, and incubating 24 hours at 37° C.

For a further data set, the system named is E. cloacae ATCC 13047. The settings on record: ethanol. Here is the method:
as §1, §4, §5

The subject of another data set is E. coli ATCC 25922. The conditions noted are these: ethanol. Here is the method: as §1, §4, §5
The subject of the next data set is E. faecalis ATCC 51299. The settings on record: ethanol. Here is the method:
as §1, §4, §5

The subject of another data set is K. pneumoniae ATCC 10031. The settings on record: ethanol. The protocol: as §1, §4, §5
For another data set, the system named is P. aeruginosa ATCC 27853. The settings on record: ethanol. The protocol:
as §1, §4, §5

In the next data set the test system is S. aureus ATCC 29213. The settings on record: ethanol. Here is the method:
as §1, §4, §5

In data set [4] the test system is S. epidermidis ATCC 35983. The settings on record: ethanol. Here is the method:
as §1, §4, §5

The test system of data set [5] is most commonly encountered infectious pathogens. The settings on record: conclusion from Table 1. Here is the method:
as §1, §4, §5

In a further data set the test system is most microorganisms. The settings on record: Sissons et al. 1996; cited from earlier work.

Consider `CC(=O)O.CC(=O)O.NC(=N\CCCCCC/N=C(N)/N=C(\N)Nc1ccc(Cl)cc1)/N=C(\N)Nc1ccc(Cl)cc1` [CHA, chlorhexidine diacetate], for which the “MBC for CHA @ 80% MIC ETOH” value in the data set with E. faecalis (ethanol 5.6% (80% of MIC)) is 4 µg/mL; with E. coli (ethanol 8% (80% of MIC)) it was 2 µg/mL; in the data set with S. aureus (ethanol 9.6% (80% of MIC)), 1 µg/mL. Further, the “MBC for CHA” value is 8 µg/mL with E. faecalis (no ethanol), 4 µg/mL in the data set on E. coli (no ethanol) and 1 to 2 µg/mL in the data set on S. aureus (no ethanol). Also, the “drop of chlorhexidine MBC in the presence of subinhibitory ethanol concentrations” value in [1] was “approximately 50%”. Moreover, the “release of chlorhexidine from catheter into 25% ethanol lock solution, compared with chlorhexidine base (FIG. 2)” value in [2] is reported as “releases faster”.

With `CCCCC(=O)O.CCCCC(=O)O.N=C(NCCCCCCNC(=N)NC(=N)Nc1ccc(Cl)cc1)NC(=N)Nc1ccc(Cl)cc1` [Valerate], in data set [3], the “Ethanol Solubility” value was 20 mg/mL and the “Water Solubility” value stood at 1.2 mg/mL.

As for `CCO` [ethanol], the MBC with C. albicans ATCC 10231 came out at 10%; with E. cloacae ATCC 13047 it was 10%; in the data set with E. coli ATCC 25922, 15%; in the data set with E. faecalis ATCC 51299, 10%; in the data set with K. pneumoniae ATCC 10031, 25%; against P. aeruginosa ATCC 27853 it was 12%. Besides, the MBC is given as 25% with S. aureus ATCC 29213 and 10-12% in data set [4]. Moreover, the MIC was 7% against C. albicans ATCC 10231 (CAMHB, 37° C., 16 to 20 hours); 7% with E. cloacae ATCC 13047 (CAMHB, 37° C., 16 to 20 hours); 10% in the data set on E. coli ATCC 25922 (CAMHB, 37° C., 16 to 20 hours); 7% with E. faecalis ATCC 51299 (CAMHB, 37° C., 16 to 20 hours); 10% against K. pneumoniae ATCC 10031 (CAMHB, 37° C., 16 to 20 hours); 7% against P. aeruginosa ATCC 27853 (CAMHB, 37° C., 16 to 20 hours). Further, the MIC in the data set on S. aureus ATCC 29213 (CAMHB, 37° C., 16 to 20 hours) is on record as 12%; in data set [4] (CAMHB, 37° C., 16 to 20 hours), 12%. Besides, the “ethanol concentration at which the solution will not inhibit microbial growth” value in data set [5] is reported as “below 7%”. In addition, in data set [5], the “ethanol lock concentration cidal towards most commonly encountered infectious pathogens” value was “above 25%”. Further, the “concentration that inhibits the growth of most microorganisms” value in the data set with most microorganisms is reported as 10%. Further, the “concentrations generally considered bactericidal” value in the data set with most microorganisms was at least 40%.

For Laurate, in data set [3], the “Ethanol Solubility” value is 200 mg/mL and the “Water Solubility” value is 0.01 mg/mL.

The values are drawn from patent US20100087788A1, “Anti-infective alcohol catheter solution with chlorhexidine treated catheter” (priority 2006, published 2010).
